According to ChEMBL document CHEMBL4765432, “Design and synthesis of novel Flavone-based histone deacetylase inhibitors antagonizing activation of STAT3 in breast cancer” (Eur J Med Chem, 2020):
Calls of active or inactive are those of the source. The calls are words filed in the database; no cut-off is given here.

Key:
[1] = Inhibition of HDAC in human HeLa cell extracts assessed as inhibition of substrate deacetylation using Boc-Lys (q-Ac)-AMC as substrate incubated for 10 mins followed by substrate addition and measured after 30 mins by fluorescence based assay; format: tissue-based
[2] = Toxicity in C57BL/6 mouse assessed death of organism at 300 mg/kg, ip observed for 24 hrs; format: organism-based; settings: in vivo
[3] = Toxicity in C57BL/6 mouse assessed death of organism at 50 mg/kg, po observed for 20 days; format: organism-based; settings: in vivo, 480 h, time 20 day
[4] = target: Signal transducer and activator of transcription 3 (Homo sapiens) (UniProt P40763); assay: Inhibition of STAT3 in human MDA-MB-231 cells assessed as reduction in STAT-3 phosphorylation incubated for 8 hrs by Western blot analysis; format: cell-based; settings: dose 2.5-20 µM
MDA-MB-231 [5] = assay: Induction of apoptosis in human MDA-MB-231 cells assessed as late apoptotic cells at 10 uM incubated for 72 hrs by annexinV-FITC and PI staining based flow cytometry analysis (reference value: 3.79 %); format: functional
4T1 [6] = assay: Induction of apoptosis in mouse 4T1 cells assessed as necrotic cells at 10 uM incubated for 72 hrs by annexinV-FITC and PI staining based flow cytometry analysis (reference value: 5.00 %); format: functional
4T1 [7] = assay: Induction of apoptosis in mouse 4T1 cells assessed as early apoptotic cells at 10 uM incubated for 72 hrs by annexinV-FITC and PI staining based flow cytometry analysis (reference value: 1.65 %); format: functional
MDA-MB-231 [8] = assay: Induction of apoptosis in human MDA-MB-231 cells assessed as viable cells at 10 uM incubated for 72 hrs by annexinV-FITC and PI staining based flow cytometry analysis (reference value: 90.3 %); format: functional; settings: read-out: Activity
4T1 [9] = assay: Induction of apoptosis in mouse 4T1 cells assessed as late apoptotic cells at 10 uM incubated for 72 hrs by annexinV-FITC and PI staining based flow cytometry analysis (reference value: 2.24 %); format: functional
4T1 [10] = assay: Induction of apoptosis in mouse 4T1 cells assessed as viable cells at 10 uM incubated for 72 hrs by annexinV-FITC and PI staining based flow cytometry analysis (reference value: 91.1 %); format: functional; settings: read-out: Activity
MDA-MB-231 [11] = assay: Induction of apoptosis in human MDA-MB-231 cells assessed as early apoptotic cells at 10 uM incubated for 72 hrs by annexinV-FITC and PI staining based flow cytometry analysis (reference value: 5.57 %); format: functional
MDA-MB-231 [12] = assay: Induction of apoptosis in human MDA-MB-231 cells assessed as necrotic cells at 10 uM incubated for 72 hrs by annexinV-FITC and PI staining based flow cytometry analysis (reference value: 0.330 %); format: functional
[13] = target: Signal transducer and activator of transcription 3 (Homo sapiens) (UniProt P40763); assay: Inhibition of STAT3 in human MDA-MB-231 cells assessed as reduction in STAT-3 phosphorylation at 2.5 to 40 uM incubated for 8 hrs by Western blot analysis; format: cell-based; settings: dose 2.5-40 µM
MDA-MB-231 [14] = assay: Induction of apoptosis in human MDA-MB-231 cells xenografted in BALB/c mouse assessed as increase in caspase-3 cleavage by immunohistochemistry method; format: functional, cell-based
4T1 [15] = assay: Induction of apoptosis in mouse 4T1 cells assessed as late apoptotic cells at 5 uM incubated for 72 hrs by annexinV-FITC and PI staining based flow cytometry analysis (reference value: 2.24 %); format: functional
4T1 [16] = assay: Induction of apoptosis in mouse 4T1 cells assessed as viable cells at 5 uM incubated for 72 hrs by annexinV-FITC and PI staining based flow cytometry analysis (reference value: 91.1 %); format: functional; settings: read-out: Activity
MDA-MB-231 [17] = assay: Induction of cell cycle arrest in human MDA-MB-231 cells assessed as G2/M phase accumulation at 2 uM incubated for 24 hrs PI staining based by flow cytometry analysis (reference value: 27.08 %); format: functional
[18] = Genotoxicity in Salmonella typhimurium WP2 uvrA (pKM 101) by Ames test; format: toxicity; settings: salmonella enterica subsp. enterica serovar typhimurium
[19] = Genotoxicity in Salmonella typhimurium TA100 by Ames test; format: toxicity; settings: salmonella enterica subsp. enterica serovar typhimurium
MDA-MB-231 [20] = assay: Induction of apoptosis in human MDA-MB-231 cells assessed as necrotic cells at 5 uM incubated for 72 hrs by annexinV-FITC and PI staining based flow cytometry analysis (reference value: 0.330 %); format: functional
MDA-MB-231 [21] = assay: Induction of cell cycle arrest in human MDA-MB-231 cells assessed as G0/G1 phase accumulation at 2 uM incubated for 24 hrs by PI staining based flow cytometry analysis (reference value: 29.10 %); format: functional
MDA-MB-231 [22] = assay: Induction of apoptosis in human MDA-MB-231 cells assessed as viable cells at 5 uM incubated for 72 hrs by annexinV-FITC and PI staining based flow cytometry analysis (reference value: 90.3 %); format: functional; settings: read-out: Activity
4T1 [23] = assay: Induction of apoptosis in mouse 4T1 cells assessed as necrotic cells at 5 uM incubated for 72 hrs by annexinV-FITC and PI staining based flow cytometry analysis (reference value: 5.00 %); format: functional
HepG2 = assay: Cytotoxicity against human HepG2 cells assessed as reduction in cell viability incubated for 48 hrs by MTT assay; format: functional, cell-based; settings: HepG2, 48 h
[24] = Genotoxicity in Salmonella typhimurium TA1537 by Ames test; format: toxicity; settings: salmonella enterica subsp. enterica serovar typhimurium
4T1 [25] = assay: Induction of apoptosis in mouse 4T1 cells implanted in BALB/c mouse assessed as increase in caspase-3 cleavage by immunohistochemistry method; format: functional, cell-based
MDA-MB-231 [26] = assay: Induction of apoptosis in human MDA-MB-231 cells assessed as late apoptotic cells at 5 uM incubated for 72 hrs by annexinV-FITC and PI staining based flow cytometry analysis (reference value: 3.79 %); format: functional
MDA-MB-231 [27] = assay: Induction of cell cycle arrest in human MDA-MB-231 cells assessed as S phase accumulation at 2 uM incubated for 24 hrs by PI staining based flow cytometry analysis (reference value: 43.82 %); format: functional
T47D = assay: Cytotoxicity against human T47D cells assessed as reduction in cell viability incubated for 48 hrs by MTT assay; format: functional, cell-based
[28] = Genotoxicity in Salmonella typhimurium TA1535 by Ames test; format: toxicity; settings: salmonella enterica subsp. enterica serovar typhimurium
4T1 [29] = assay: Induction of cell cycle arrest in mouse 4T1 cells assessed as G0/G1 phase accumulation at 2 uM incubated for 24 hrs by PI staining based flow cytometry analysis (reference value: 42.06 %); format: functional
[30] = Genotoxicity in Salmonella typhimurium TA98 by Ames test; format: toxicity; settings: salmonella enterica subsp. enterica serovar typhimurium
[31] = Genotoxicity in Salmonella typhimurium TA97a by Ames test; format: toxicity; settings: salmonella enterica subsp. enterica serovar typhimurium
4T1 [32] = assay: Induction of apoptosis in mouse 4T1 cells assessed as early apoptotic cells at 5 uM incubated for 72 hrs by annexinV-FITC and PI staining based flow cytometry analysis (reference value: 1.65 %); format: functional
4T1 [33] = assay: Induction of cell cycle arrest in mouse 4T1 cells assessed as G2/M phase accumulation at 2 uM incubated for 24 hrs by PI staining based flow cytometry analysis (reference value: 38.51 %); format: functional
4T1 [34] = assay: Induction of cell cycle arrest in mouse 4T1 cells assessed as S phase accumulation at 2 uM incubated for 24 hrs by PI staining based flow cytometry analysis (reference value: 19.43 %); format: functional
MDA-MB-231 [35] = assay: Induction of apoptosis in human MDA-MB-231 cells assessed as early apoptotic cells at 5 uM incubated for 72 hrs by annexinV-FITC and PI staining based flow cytometry analysis (reference value: 5.57 %); format: functional

Sequence of Signal transducer and activator of transcription 3 (Homo sapiens) (P40763 whole entry): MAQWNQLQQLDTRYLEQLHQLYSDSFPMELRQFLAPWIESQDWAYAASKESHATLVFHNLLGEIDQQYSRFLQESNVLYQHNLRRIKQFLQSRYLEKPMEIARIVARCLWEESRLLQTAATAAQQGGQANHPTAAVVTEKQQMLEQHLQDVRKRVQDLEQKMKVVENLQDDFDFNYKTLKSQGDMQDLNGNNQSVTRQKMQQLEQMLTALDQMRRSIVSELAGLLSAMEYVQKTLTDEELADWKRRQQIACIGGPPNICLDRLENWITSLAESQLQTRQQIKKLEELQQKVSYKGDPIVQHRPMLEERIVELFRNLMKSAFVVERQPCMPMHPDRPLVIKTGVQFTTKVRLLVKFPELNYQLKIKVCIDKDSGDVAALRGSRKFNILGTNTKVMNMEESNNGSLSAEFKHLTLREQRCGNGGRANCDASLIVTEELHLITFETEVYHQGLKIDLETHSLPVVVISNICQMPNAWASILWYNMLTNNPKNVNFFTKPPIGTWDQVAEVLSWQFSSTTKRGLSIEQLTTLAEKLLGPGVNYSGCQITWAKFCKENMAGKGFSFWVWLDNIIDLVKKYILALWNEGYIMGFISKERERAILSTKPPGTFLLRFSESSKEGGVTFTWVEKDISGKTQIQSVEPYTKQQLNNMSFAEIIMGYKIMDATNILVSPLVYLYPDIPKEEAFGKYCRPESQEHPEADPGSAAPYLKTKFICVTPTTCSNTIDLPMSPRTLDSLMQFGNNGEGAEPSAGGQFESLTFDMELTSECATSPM

COc1ccc(-c2cc(=O)c3c(O)cc(OCCCCCCC(=O)NO)cc3o2)cc1 showed an IC50 [1] of 5.25 µM.
Molecule O=C(CCCCOc1cc(O)c2c(=O)cc(-c3ccccc3)oc2c1)NO has an IC50 [1] of 3.33 µM.
For CN(C)CCCOc1ccc(-c2cc(=O)c3c(O)cc(OCCCCCC(=O)NO)cc3o2)cc1.Cl, the IC50 [1] was 0.065 µM, the Activity [2] was “Toxic” and the Activity [3] was “Toxic”. The inhibition [4] was “Dose-dependent effect”.
With O=c1cc(-c2ccc(O)cc2)oc2cc(O)cc(O)c12 [APIGENIN] the IC50 [1] was over 10 µM, the Activity (MDA-MB-231 [5]) was 1.59% and the Activity (4T1 [6]) was 4.45%. For the same molecule, the Activity (4T1 [7]) was 3.22%, the viability at 10 µM (MDA-MB-231 [8]) was 90.1% and the Activity (4T1 [9]) was 3.22%. For the same molecule, the viability at 10 µM (4T1 [10]) was 89.1%, the Activity (MDA-MB-231 [11]) was 8.28% and the Activity (MDA-MB-231 [12]) was 0.02%.
Molecule COc1ccc(-c2coc3cc(OCCCCCCC(=O)NO)ccc3c2=O)cc1 has an IC50 [1] of over 10 µM.
With O=C(CCCCCCCOc1cc(O)c2c(=O)cc(-c3ccc(O)cc3)oc2c1)NO the IC50 [1] was 0.615 µM.
For CN(C)CCCOc1ccc(-c2cc(=O)c3c(O)cc(OCCCCCCC(=O)NO)cc3o2)cc1, the IC50 [1] was 0.025 µM.
For COc1ccc(-c2cc(=O)c3c(O)cc(OCCCCCC(=O)NO)cc3o2)cc1, the IC50 [1] was 4530 µM.
Work on COc1ccc(-c2coc3cc(OCCCCCCCC(=O)NO)cc(O)c3c2=O)cc1 yielded an IC50 [1] of over 10 µM.
Work on CN(C)CCOc1ccc(-c2cc(=O)c3c(O)cc(OCCCCCCC(=O)NO)cc3o2)cc1 yielded an IC50 [1] of 0.732 µM.
Work on O=C(CCCCCOc1cc(O)c2c(=O)cc(-c3ccc(OCCN4CCCC4)cc3)oc2c1)NO yielded an IC50 [1] of over 10 µM.
In the case of COC(=O)CCCCCOc1cc(O)c2c(=O)cc(-c3ccc(OCCN(C)C)cc3)oc2c1, the inhibition [13] is reported as “Active”.
CN(C)CCCOc1ccc(-c2cc(=O)c3c(O)cc(OCCCCCCCC(=O)NO)cc3o2)cc1 showed an IC50 [1] of 0.053 µM.
COc1ccc(-c2coc3cc(OCCCCCCC(=O)NO)cc(O)c3c2=O)cc1 showed an IC50 [1] of over 10 µM.
O=C(CCCCCOc1cc(O)c2c(=O)cc(-c3ccccc3)oc2c1)NO showed an IC50 [1] of 0.053 µM.
Work on CN(C)CCOc1ccc(-c2cc(=O)c3c(O)cc(OCCCCCCCC(=O)NO)cc3o2)cc1 yielded an IC50 [1] of 1.68 µM.
In the case of CN1CCN(CCOc2ccc(-c3cc(=O)c4c(O)cc(OCCCCCC(=O)NO)cc4o3)cc2)CC1, the IC50 [1] is reported as 0.225 µM.
O=C(CCCCCOc1cc(O)c2c(=O)cc(-c3ccc(O)cc3)oc2c1)NO gave an IC50 [1] of 0.297 µM.
With O=C(COc1cc(O)c2c(=O)cc(-c3ccccc3)oc2c1)NO the IC50 [1] was over 10 µM.
O=C(CCCCCCOc1cc(O)c2c(=O)cc(-c3ccccc3)oc2c1)NO showed an IC50 [1] of 0.088 µM.
Work on O=C(CCCCCOc1cc(O)c2c(=O)cc(-c3ccc(OCCN4CCOCC4)cc3)oc2c1)NO yielded an IC50 [1] of 0.59 µM.
For O=C(CCCCCCC(=O)Nc1ccccc1)NO [VORINOSTAT], the Activity (MDA-MB-231 [14]) was “Active”, the inhibition [13] was “inactive” and the Activity (4T1 [15]) was 13.4%. The viability at 5 µM (4T1 [16]) was 35.6%, the Activity (MDA-MB-231 [17]) was 18.69% and the Activity [18] was “Non-Toxic”. For the same molecule, the Activity [19] was “Toxic”, the Activity (MDA-MB-231 [20]) was 0.356% and the Activity (MDA-MB-231 [21]) was 72.99%. The viability at 5 µM (MDA-MB-231 [22]) was 53.8%, the Activity (4T1 [23]) was 2.08% and the IC50 (HepG2) was 2.27 µM. The Activity [24] was “Non-Toxic”, the Activity (4T1 [25]) was “Active” and the Activity (MDA-MB-231 [26]) was 25.8%. The Activity (MDA-MB-231 [27]) was 8.32%, the IC50 (T47D) was 2.24 µM and the Activity [28] was “Non-Toxic”. The Activity (4T1 [29]) was 53.69%, the Activity [30] was “Non-Toxic” and the Activity [31] was “Toxic”. For the same molecule, the Activity (4T1 [32]) was 48.9%, the Activity (4T1 [33]) was 22.68% and the Activity (4T1 [34]) was 23.63%. The Activity (MDA-MB-231 [35]) was 20.1%.
With COc1ccc(-c2coc3cc(OCCCCCCCC(=O)NO)ccc3c2=O)cc1 the IC50 [1] was over 10 µM.
Work on COc1ccc(-c2coc3cc(OCCCCCC(=O)NO)cc(O)c3c2=O)cc1 yielded an IC50 [1] of over 10 µM.
With COc1ccc(-c2coc3cc(OCCCCCC(=O)NO)ccc3c2=O)cc1 the IC50 [1] was 0.71 µM.
O=C(CCCCCCCOc1cc(O)c2c(=O)cc(-c3ccccc3)oc2c1)NO showed an IC50 [1] of 0.402 µM.
O=C(CCCOc1cc(O)c2c(=O)cc(-c3ccccc3)oc2c1)NO showed an IC50 [1] of over 10 µM.
Work on O=C(CCCCCOc1cc(O)c2c(=O)cc(-c3ccc(OCCN4CCCCC4)cc3)oc2c1)NO yielded an IC50 [1] of 0.133 µM.
O=C(CCCCCCOc1cc(O)c2c(=O)cc(-c3ccc(O)cc3)oc2c1)NO showed an IC50 [1] of 0.93 µM.
COc1ccc(-c2cc(=O)c3c(O)cc(OCCCCCCCC(=O)NO)cc3o2)cc1 gave an IC50 [1] of over 10 µM.
